1 compound from publication doi:10.1101/2025.07.07.663466v1 (biorxiv, 2025) can be followed below.

The target of the assay is M. tuberculosis GroEL1 (Cpn60.1) (Mycobacterium tuberculosis, UniProt P9WPE9).
Sequence of M. tuberculosis GroEL1 (Cpn60.1) (P9WPE9 2-539 limits assumed): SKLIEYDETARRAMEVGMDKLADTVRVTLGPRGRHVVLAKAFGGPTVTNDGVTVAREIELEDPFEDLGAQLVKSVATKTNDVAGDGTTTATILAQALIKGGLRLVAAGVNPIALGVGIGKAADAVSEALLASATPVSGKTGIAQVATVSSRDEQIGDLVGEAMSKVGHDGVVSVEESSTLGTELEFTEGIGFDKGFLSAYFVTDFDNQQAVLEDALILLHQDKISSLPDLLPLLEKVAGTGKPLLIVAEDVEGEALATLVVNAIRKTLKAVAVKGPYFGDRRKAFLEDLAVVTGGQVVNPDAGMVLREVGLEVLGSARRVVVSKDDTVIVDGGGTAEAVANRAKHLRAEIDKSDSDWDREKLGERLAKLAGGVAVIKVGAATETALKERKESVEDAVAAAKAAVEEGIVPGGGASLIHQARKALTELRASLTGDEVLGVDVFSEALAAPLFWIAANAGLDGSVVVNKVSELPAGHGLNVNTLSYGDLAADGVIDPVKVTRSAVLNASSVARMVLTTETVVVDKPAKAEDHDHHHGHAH

For `CCC(=O)SCCNC(=O)CCNC(=O)[C@H](O)C(C)(C)COP(=O)(O)OP(=O)(O)OC[C@H]1O[C@@H](n2cnc3c(N)ncnc32)[C@H](O)[C@@H]1OP(=O)(O)O` [propionyl-CoA], the “auto-propionylation, anti-propionyllysine enrichment and MS/MS” value is “Using propionyl-CoA as a substrate”.
